Results on 15 molecules are retold here after patent publication US4843066A, “Novel adenosine derivatives and pharmaceutical composition containing them as an active ingredient” (priority 1986, dated 1989).

Where two headings read alike, the source gives them in different places.

The subject of data set [1] is spontaneously hypertensive rats (SHR). The experiment in a line: Antihypertensive activity (blood pressure after oral administration). The format is in vivo. To be noted: for inhibition in vivo at 10 mg/kg / inhibition in vivo at 30 mg/kg / inhibition in vivo at 200 mg/kg / inhibition in vivo at 100 mg/kg: Rattus norvegicus, decrease vs before; for inhibition in vivo at 10 mg/kg / Blood pressure 2 hrs / Blood pressure 4 hrs / Blood pressure 6 hrs / inhibition in vivo at 30 mg/kg / inhibition in vivo at 200 mg/kg / inhibition in vivo at 100 mg/kg: SHR; for Blood pressure 2 hrs: 2 hrs after administration; for Blood pressure 2 hrs / Blood pressure 4 hrs / Blood pressure 6 hrs: mean ± S.E.; for Blood pressure 4 hrs: 4 hrs after administration; for Blood pressure 6 hrs: 6 hrs after administration. The procedure:
The test compounds, which were dissolved or suspended in 0.5% C.M.C. aqueous solution, were orally administered to groups of 3 or 4 spontaneously hypertensive rats (SHR), weighing about 300 to 400 g. Blood pressure was measured before and 2, 4 and 6 hours after the administration.

The nature of a further data set: in vivo. As to conditions: mouse, oral, in 0.5% C.M.C., ddY male mice, death rate for 7 days.
For data set [2] the following is noted: in vivo.
Setting [3] is: oral 10 mg/kg, 2 hrs, read-out: Blood pressure 2 hrs [Decrease].
[4] abbreviates: oral 10 mg/kg, 4 hrs, read-out: Blood pressure 4 hrs [Decrease].
The mark [5] stands for this setting: oral 10 mg/kg, 6 hrs, read-out: Blood pressure 6 hrs [Decrease].
[6] abbreviates: oral 30 mg/kg, 2 hrs, read-out: Blood pressure 2 hrs [Decrease].
The mark [7] stands for this setting: oral 30 mg/kg, 4 hrs, read-out: Blood pressure 4 hrs [Decrease].
Setting [8] is: oral 30 mg/kg, 6 hrs, read-out: Blood pressure 6 hrs [Decrease].
The mark [9] stands for this setting: oral 200 mg/kg, 2 hrs, read-out: Blood pressure 2 hrs [Decrease].
The mark [10] stands for this setting: oral 200 mg/kg, 4 hrs, read-out: Blood pressure 4 hrs [Decrease].
Where [11] appears, read: oral 200 mg/kg, 6 hrs, read-out: Blood pressure 6 hrs [Decrease].
[12] abbreviates: oral 100 mg/kg, 2 hrs, read-out: Blood pressure 2 hrs [Decrease].
[13] abbreviates: oral 100 mg/kg, 4 hrs, read-out: Blood pressure 4 hrs [Decrease].
The mark [14] stands for this setting: oral 100 mg/kg, 6 hrs, read-out: Blood pressure 6 hrs [Decrease].

Broadly, the LD50 is the dose at which mortality reaches 50%. As for `CNc1nc(C)nc2c1ncn2[C@@H]1O[C@H](COC)[C@@H](O)[C@H]1O` [Compound 24, 2,N^6,5'-O-trimethyladenosine], the inhibition in vivo at 10 mg/kg in data set [1] (setting [3]) amounted to 43.3%. Also, the inhibition in vivo at 10 mg/kg in data set [1] (setting [4]) is 27%. Besides, the inhibition in vivo at 10 mg/kg in data set [1] (setting [5]) was found to be 23%. Further, in data set [1] (oral 10 mg/kg), the “Blood pressure 2 hrs” value was found to be 128 ± 7 mmHg, the “Blood pressure 4 hrs” value was found to be 165 ± 7 mmHg and the “Blood pressure 6 hrs” value turned out to be 174 ± 4 mmHg. Moreover, the 50% lethal dose (LD50) at 168 h in the data set “in vivo” came out at 1320 mg/kg.

As for `COC[C@H]1O[C@@H](n2cnc3c(N)ncnc32)[C@H](O)[C@@H]1O` [Compound 11, 5'-O-methyladenosine], the inhibition in vivo at 30 mg/kg in data set [1] (setting [6]) is 18.2%; in data set [1] (setting [7]), 5.9%; in data set [1] (setting [8]) it was 6.6%. Also, the “Blood pressure 2 hrs” value in data set [1] (oral 30 mg/kg) was 189 ± 3 mmHg. In addition, the “Blood pressure 4 hrs” value in data set [1] (oral 30 mg/kg) was 206 ± 10 mmHg. For the same molecule, the “Blood pressure 6 hrs” value in data set [1] (oral 30 mg/kg) is 204 ± 9 mmHg. In “in vivo”, the LD50 at 168 h is 800 mg/kg.

Turning to `Nc1ncnc2c1ncn2[C@@H]1O[C@H](CO)[C@@H](O)[C@H]1O` [Adenosine, adenosine], the inhibition in vivo at 200 mg/kg in data set [1] (setting [9]) was -6.1%. Besides, in data set [1] (setting [10]), the inhibition in vivo at 200 mg/kg came out at 1.8%. Further, the inhibition in vivo at 200 mg/kg in data set [1] (setting [11]) was -3.2%. Besides, in data set [1] (oral 200 mg/kg), the “Blood pressure 2 hrs” value came to 202 ± 12 mmHg, the “Blood pressure 4 hrs” value was determined as 187 ± 3 mmHg and the “Blood pressure 6 hrs” value came to 198 ± 4 mmHg. Further, in data set [1] (oral administration), the “hypotensive effect (in words)” value was “does not decrease blood pressure”. In data set [2], the “bradycardia (side effect)” value is “Bradycardia was observed”.

For the molecule `CO[C@@H]1[C@H](O)[C@@H](CO)O[C@H]1n1cnc2c(N)nc(C)nc21` [Compound 5, 2,2'-O-dimethyladenosine], the inhibition in vivo at 10 mg/kg in data set [1] (setting [3]) was 40.2%. Besides, the inhibition in vivo at 10 mg/kg in data set [1] (setting [4]) was 26.5%. Moreover, the inhibition in vivo at 10 mg/kg in data set [1] (setting [5]) is 12.7%. Moreover, in data set [1] (oral 10 mg/kg), the “Blood pressure 2 hrs” value came out at 131 ± 6 mmHg, the “Blood pressure 4 hrs” value was determined as 161 ± 11 mmHg and the “Blood pressure 6 hrs” value came out at 193 ± 24 mmHg. Further, the LD50 at 168 h in the data set “in vivo” was 540 mg/kg.

`CO[C@@H]1[C@H](O)[C@@H](CO)O[C@H]1n1cnc2c(N)ncnc21` [Compound 1, 2'-O-methyladenosine]: the inhibition in vivo at 200 mg/kg in data set [1] (setting [9]) came to 53.2%. The inhibition in vivo at 200 mg/kg in data set [1] (setting [10]) turned out to be 45.8%. In data set [1] (setting [11]), the inhibition in vivo at 200 mg/kg is 42.8%. Moreover, in data set [1] (oral 200 mg/kg), the “Blood pressure 2 hrs” value came to 103 ± 21 mmHg, the “Blood pressure 4 hrs” value is 121 ± 32 mmHg and the “Blood pressure 6 hrs” value is recorded as 128 ± 41 mmHg. In “in vivo”, this molecule registered an LD50 at 168 h of more than 2000 mg/kg.

Regarding `CCO[C@@H]1[C@H](O)[C@@H](CO)O[C@H]1n1cnc2c(NC)nc(C)nc21` [Compound 22, 2,N^6-dimethyl-2'-O-ethyladenosine], the inhibition in vivo at 10 mg/kg in data set [1] (setting [3]) amounted to 25.8%. For the same molecule, the inhibition in vivo at 10 mg/kg in data set [1] (setting [4]) was found to be 18.8%. Also, the inhibition in vivo at 10 mg/kg in data set [1] (setting [5]) turned out to be 13.1%. Also, in data set [1] (oral 10 mg/kg), the “Blood pressure 2 hrs” value came to 168 ± 6 mmHg, the “Blood pressure 4 hrs” value turned out to be 185 ± 7 mmHg and the “Blood pressure 6 hrs” value is on record as 197 ± 3 mmHg. In the data set “in vivo”, this molecule returned an LD50 at 168 h of approximately 400 mg/kg.

`CCO[C@@H]1[C@H](O)[C@@H](CO)O[C@H]1n1cnc2c(N)ncnc21` [Compound 3, 2'-O-ethyladenosine]: in data set [1] (setting [12]), the inhibition in vivo at 100 mg/kg amounted to 52.2%. Further, the inhibition in vivo at 100 mg/kg in data set [1] (setting [13]) came to 49.5%. The inhibition in vivo at 100 mg/kg in data set [1] (setting [14]) was 47.3%. Also, in data set [1] (oral 100 mg/kg), the “Blood pressure 2 hrs” value came out at 102 ± 15 mmHg, the “Blood pressure 4 hrs” value is recorded as 106 ± 20 mmHg and the “Blood pressure 6 hrs” value is 111 ± 26 mmHg. Also, the LD50 at 168 h in “in vivo” was 750 to 1000 mg/kg.

As to `CCO[C@@H]1[C@H](O)[C@@H](CO)O[C@H]1n1cnc2c(N)nc(C)nc21` [Compound 9, 2-methyl-2'-O-ethyladenosine], the inhibition in vivo at 30 mg/kg in data set [1] (setting [6]) was 23.6%; in data set [1] (setting [7]), 10.7%; in data set [1] (setting [8]) it was 13.5%. In addition, the “Blood pressure 2 hrs” value in data set [1] (oral 30 mg/kg) is 169 ± 7 mmHg. Besides, in data set [1] (oral 30 mg/kg), the “Blood pressure 4 hrs” value is on record as 197 ± 5 mmHg. Also, in data set [1] (oral 30 mg/kg), the “Blood pressure 6 hrs” value worked out at 191 ± 9 mmHg. Further, the median lethal dose (LD50) at 168 h in “in vivo” lay within 500 to 1000 mg/kg.

For the molecule `CO[C@@H]1[C@H](O)[C@@H](CO)O[C@H]1n1cnc2c(N)nc(Cl)nc21` [Compound 27, 2-chloro-2'-O-methyladenosine], in data set [1] (setting [12]), the inhibition in vivo at 100 mg/kg came out at 68.4%. Also, in data set [1] (setting [13]), the inhibition in vivo at 100 mg/kg was found to be 64.8%. The inhibition in vivo at 100 mg/kg in data set [1] (setting [14]) was determined as 66.9%. Further, in data set [1] (oral 100 mg/kg), the “Blood pressure 2 hrs” value was found to be 70 ± 10 mmHg, the “Blood pressure 4 hrs” value is on record as 78 ± 8 mmHg and the “Blood pressure 6 hrs” value is 73 ± 16 mmHg. The LD50 at 168 h in the data set “in vivo” was approximately 400 mg/kg.

Turning to `CO[C@H]1[C@@H](O)[C@H](n2cnc3c(N)ncnc32)O[C@@H]1CO` [Compound 2, 3'-O-methyladenosine], in data set [1] (setting [9]), the inhibition in vivo at 200 mg/kg stood at 41.2%. Further, the inhibition in vivo at 200 mg/kg in data set [1] (setting [10]) was 29%. Also, the inhibition in vivo at 200 mg/kg in data set [1] (setting [11]) is 27.2%. Further, in data set [1] (oral 200 mg/kg), the “Blood pressure 2 hrs” value was 135 ± 28 mmHg, the “Blood pressure 4 hrs” value was 163 ± 40 mmHg and the “Blood pressure 6 hrs” value came to 167 ± 47 mmHg. For the same molecule, the LD50 at 168 h in “in vivo” was more than 2000 mg/kg.

In the case of `CNc1nc(C)nc2c1ncn2[C@@H]1O[C@H](CO)[C@@H](O)[C@H]1OC` [Compound 21, 2,N^6,2'-O-trimethyladenosine], in data set [1] (setting [6]), the inhibition in vivo at 30 mg/kg is 23.9%. Moreover, the inhibition in vivo at 30 mg/kg in data set [1] (setting [7]) amounted to 16.9%. Also, in data set [1] (setting [8]), the inhibition in vivo at 30 mg/kg was 10.8%. In data set [1] (oral 30 mg/kg), the “Blood pressure 2 hrs” value is given as 159 ± 20 mmHg, the “Blood pressure 4 hrs” value stood at 172 ± 7 mmHg and the “Blood pressure 6 hrs” value was found to be 188 ± 8 mmHg. The LD50 at 168 h in the data set “in vivo” was approximately 400 mg/kg.

Consider `CNc1ncnc2c1ncn2[C@@H]1O[C@H](COC)[C@@H](O)[C@H]1O` [Compound 19, N^6-5'-O-dimethyladenosine], for which the inhibition in vivo at 30 mg/kg in data set [1] (setting [6]) worked out at 43%. Further, the inhibition in vivo at 30 mg/kg in data set [1] (setting [7]) was determined as 27.1%. In addition, the inhibition in vivo at 30 mg/kg in data set [1] (setting [8]) is 26.3%. Moreover, in data set [1] (oral 30 mg/kg), the “Blood pressure 2 hrs” value came out at 122 ± 8 mmHg, the “Blood pressure 4 hrs” value was 155 ± 7 mmHg and the “Blood pressure 6 hrs” value worked out at 157 ± 12 mmHg. In “in vivo”, this molecule yielded a 50% lethal dose (LD50) at 168 h of 1300 mg/kg.

In the case of `CNc1ncnc2c1ncn2[C@@H]1O[C@H](CO)[C@@H](O)[C@H]1OC` [Compound 17, N^6-2'-O-dimethyladenosine], the inhibition in vivo at 30 mg/kg in data set [1] (setting [6]) was 17.1%. For the same molecule, the inhibition in vivo at 30 mg/kg in data set [1] (setting [7]) was 11.7%. Besides, in data set [1] (setting [8]), the inhibition in vivo at 30 mg/kg is 14.1%. Further, in data set [1] (oral 30 mg/kg), the “Blood pressure 2 hrs” value is on record as 192 ± 15 mmHg, the “Blood pressure 4 hrs” value stood at 204 ± 5 mmHg and the “Blood pressure 6 hrs” value is 199 ± 8 mmHg.

As for `COC[C@H]1O[C@@H](n2cnc3c(N)nc(C)nc32)[C@H](O)[C@@H]1O` [Compound 15, 2,5'-O-dimethyladenosine], the inhibition in vivo at 10 mg/kg in data set [1] (setting [3]) amounted to 35.2%. Further, the inhibition in vivo at 10 mg/kg in data set [1] (setting [4]) came to 17.7%. Also, in data set [1] (setting [5]), the inhibition in vivo at 10 mg/kg is 9.1%. In data set [1] (oral 10 mg/kg), the “Blood pressure 2 hrs” value is 154 ± 13 mmHg, the “Blood pressure 4 hrs” value came out at 195 ± 22 mmHg and the “Blood pressure 6 hrs” value came to 215 ± 5 mmHg. In the data set “in vivo”, this molecule displayed an LD50 at 168 h of 500 to 1000 mg/kg.

Regarding `CO[C@@H]1[C@H](O)[C@@H](CO)O[C@H]1n1cnc2c(N)nc(F)nc21` [Compound 29, 2-fluoro-2'-O-methyladenosine], the inhibition in vivo at 30 mg/kg in data set [1] (setting [6]) worked out at 45.9%; in data set [1] (setting [7]) it was 19.8%; in data set [1] (setting [8]), 16.4%. For the same molecule, the “Blood pressure 2 hrs” value in data set [1] (oral 30 mg/kg) was determined as 131 ± 4 mmHg. The “Blood pressure 4 hrs” value in data set [1] (oral 30 mg/kg) stood at 195 ± 5 mmHg. Besides, the “Blood pressure 6 hrs” value in data set [1] (oral 30 mg/kg) amounted to 204 ± 3 mmHg. This molecule also had a median lethal dose (LD50) at 168 h in “in vivo” of more than 2000 mg/kg.
